The source of these data is article PMC4579270, “Identification and Characterization of an Irreversible Inhibitor of CDK2” (Chemistry & Biology, 2015).

SMILES strings stand for the structures.

Assay in all cases: Dundee protein kinase screen
Holding throughout (type): biochemical

One assay concerns the target MSK1 (Homo sapiens, UniProt O75582). As to conditions: MSK1, 1µM; read-out: %Remaining activity at 1µM NU6300. How it is done:
(§1) Prior to determining its cellular activity, we carried out a screen to assess its selectivity against a panel of 131 protein kinases under conditions that would not distinguish between a reversible or irreversible mode of action. […] These 13 kinases and 29 additional kinases, selected for their known sensitivity to other inhibitors within the purine series, were then tested in a modified screening format in which the assay was repeated following a 4-hr pre-incubation (Table S3B). […] However, conformational flexibility around the active site may promote such an interaction with a residue from another part of the structure ([Martin et al., 2012]).
(§2) Table S3, Related to Figure 4. NCL-0006300 protein kinase selectivity. (A) NU6300 was tested at a single concentration of 1µM against 131 protein kinases present in a Dundee protein kinase screen (Bain et al., 2007). Values given are % activity remaining and are the average of duplicate measurements: 0-25% (red), 26-50% (yellow), 51-80% […]
(§3) (black) and above 81% (green). […]

Another assay deals with MST4 (Homo sapiens, UniProt Q9P289). The settings on record: MST4, 1µM; read-out: %Remaining activity at 1µM NU6300. How it is done: as §1, §2, §3
A further assay deals with OSR1 (Homo sapiens, UniProt O95747). As to conditions: OSR1, 1µM; read-out: %Remaining activity at 1µM NU6300. As for the experimental part: as §1, §2, §3
For a further assay, the target named is PAK5 (Homo sapiens, UniProt Q9P286). The settings on record: PAK5, 1µM; read-out: %Remaining activity at 1µM NU6300. As for the experimental part:
as §1, §2, §3

The target of a further assay is PAK6 (Homo sapiens, UniProt Q9NQU5). The settings on record: PAK6, 1µM; read-out: %Remaining activity at 1µM NU6300. As for the experimental part:
as §1, §2, §3

A further assay has as its target PIM1 (Homo sapiens, UniProt P11309). As to conditions: PIM1, 1µM; read-out: %Remaining activity at 1µM NU6300. How it is done:
as §1, §2, §3

A further assay addresses PKCα (Homo sapiens, UniProt P17252). As to conditions: read-out: %Remaining activity at 1µM NU6300. How it is done:
as §1, §2, §3

A further assay deals with ROCK 2 (Homo sapiens, UniProt O75116). As to conditions: ROCK 2, 1µM; read-out: %Remaining activity at 1µM NU6300. As for the experimental part:
as §1, §2, §3

For the next assay, the target named is SIK2 (Homo sapiens, UniProt Q9H0K1). As to conditions: SIK2, 1µM; read-out: %Remaining activity at 1µM NU6300. How it is done:
as §1, §2, §3

For another assay, the target named is T1, TAK1 (Homo sapiens, UniProt O43318).
T1 sequence (O43318 1-303 limits assumed): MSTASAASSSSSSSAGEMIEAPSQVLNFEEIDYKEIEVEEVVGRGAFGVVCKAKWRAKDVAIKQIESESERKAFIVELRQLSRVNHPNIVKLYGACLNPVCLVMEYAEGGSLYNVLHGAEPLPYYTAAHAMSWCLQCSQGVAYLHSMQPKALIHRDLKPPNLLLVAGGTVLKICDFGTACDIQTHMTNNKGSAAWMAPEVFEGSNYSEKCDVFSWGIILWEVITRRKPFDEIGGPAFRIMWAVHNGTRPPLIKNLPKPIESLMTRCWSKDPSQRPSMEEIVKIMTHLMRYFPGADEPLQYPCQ
The settings on record: TAK1, 1µM; read-out: %Remaining activity at 1µM NU6300. As for the experimental part:
as §1, §2, §3

Chain of MST4 (Q9P289 whole entry): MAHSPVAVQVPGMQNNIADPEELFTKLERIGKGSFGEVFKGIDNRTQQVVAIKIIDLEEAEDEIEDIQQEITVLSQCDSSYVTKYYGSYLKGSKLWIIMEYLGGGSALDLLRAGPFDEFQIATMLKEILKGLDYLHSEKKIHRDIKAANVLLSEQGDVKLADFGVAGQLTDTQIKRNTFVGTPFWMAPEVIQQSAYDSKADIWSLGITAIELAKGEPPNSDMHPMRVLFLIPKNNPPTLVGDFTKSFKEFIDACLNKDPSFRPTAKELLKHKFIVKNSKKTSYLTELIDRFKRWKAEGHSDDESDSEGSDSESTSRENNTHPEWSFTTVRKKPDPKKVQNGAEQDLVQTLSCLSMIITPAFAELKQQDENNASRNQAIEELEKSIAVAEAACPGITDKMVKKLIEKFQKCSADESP
Chain of ROCK 2 (O75116 whole entry): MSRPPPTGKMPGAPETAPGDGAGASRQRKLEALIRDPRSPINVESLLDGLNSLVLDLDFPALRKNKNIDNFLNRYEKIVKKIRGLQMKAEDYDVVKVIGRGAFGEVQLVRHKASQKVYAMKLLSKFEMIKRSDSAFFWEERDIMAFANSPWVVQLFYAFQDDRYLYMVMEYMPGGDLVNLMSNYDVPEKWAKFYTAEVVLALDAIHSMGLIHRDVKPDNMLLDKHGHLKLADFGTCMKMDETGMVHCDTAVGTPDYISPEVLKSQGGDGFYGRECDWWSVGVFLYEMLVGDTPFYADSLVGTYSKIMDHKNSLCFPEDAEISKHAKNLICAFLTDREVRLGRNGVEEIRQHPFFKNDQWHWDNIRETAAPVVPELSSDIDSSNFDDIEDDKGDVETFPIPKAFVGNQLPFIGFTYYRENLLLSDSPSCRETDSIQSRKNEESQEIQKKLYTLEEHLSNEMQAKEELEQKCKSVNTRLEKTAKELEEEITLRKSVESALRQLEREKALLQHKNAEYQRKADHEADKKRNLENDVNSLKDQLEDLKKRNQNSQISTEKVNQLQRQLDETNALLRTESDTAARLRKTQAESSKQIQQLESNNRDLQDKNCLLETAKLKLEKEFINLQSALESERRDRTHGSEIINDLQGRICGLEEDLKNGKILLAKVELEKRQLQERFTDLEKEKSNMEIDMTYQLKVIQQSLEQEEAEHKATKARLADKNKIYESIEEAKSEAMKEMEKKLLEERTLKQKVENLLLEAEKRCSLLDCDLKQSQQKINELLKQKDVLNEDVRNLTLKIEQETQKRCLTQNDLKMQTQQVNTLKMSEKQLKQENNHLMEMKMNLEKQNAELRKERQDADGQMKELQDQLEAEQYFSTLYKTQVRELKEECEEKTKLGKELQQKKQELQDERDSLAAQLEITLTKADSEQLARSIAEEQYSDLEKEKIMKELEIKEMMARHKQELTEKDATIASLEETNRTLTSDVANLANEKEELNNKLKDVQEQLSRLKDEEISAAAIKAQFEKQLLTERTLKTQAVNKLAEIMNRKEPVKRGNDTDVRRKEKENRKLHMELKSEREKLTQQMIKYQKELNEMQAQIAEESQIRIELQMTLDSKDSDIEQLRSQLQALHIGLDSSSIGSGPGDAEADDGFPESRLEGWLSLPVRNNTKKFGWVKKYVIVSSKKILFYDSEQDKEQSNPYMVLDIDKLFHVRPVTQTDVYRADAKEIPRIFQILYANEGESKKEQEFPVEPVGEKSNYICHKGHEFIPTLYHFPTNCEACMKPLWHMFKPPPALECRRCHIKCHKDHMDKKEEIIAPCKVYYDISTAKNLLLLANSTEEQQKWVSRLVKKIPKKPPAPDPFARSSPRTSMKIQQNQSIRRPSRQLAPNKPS
Chain of SIK2 (Q9H0K1 whole entry): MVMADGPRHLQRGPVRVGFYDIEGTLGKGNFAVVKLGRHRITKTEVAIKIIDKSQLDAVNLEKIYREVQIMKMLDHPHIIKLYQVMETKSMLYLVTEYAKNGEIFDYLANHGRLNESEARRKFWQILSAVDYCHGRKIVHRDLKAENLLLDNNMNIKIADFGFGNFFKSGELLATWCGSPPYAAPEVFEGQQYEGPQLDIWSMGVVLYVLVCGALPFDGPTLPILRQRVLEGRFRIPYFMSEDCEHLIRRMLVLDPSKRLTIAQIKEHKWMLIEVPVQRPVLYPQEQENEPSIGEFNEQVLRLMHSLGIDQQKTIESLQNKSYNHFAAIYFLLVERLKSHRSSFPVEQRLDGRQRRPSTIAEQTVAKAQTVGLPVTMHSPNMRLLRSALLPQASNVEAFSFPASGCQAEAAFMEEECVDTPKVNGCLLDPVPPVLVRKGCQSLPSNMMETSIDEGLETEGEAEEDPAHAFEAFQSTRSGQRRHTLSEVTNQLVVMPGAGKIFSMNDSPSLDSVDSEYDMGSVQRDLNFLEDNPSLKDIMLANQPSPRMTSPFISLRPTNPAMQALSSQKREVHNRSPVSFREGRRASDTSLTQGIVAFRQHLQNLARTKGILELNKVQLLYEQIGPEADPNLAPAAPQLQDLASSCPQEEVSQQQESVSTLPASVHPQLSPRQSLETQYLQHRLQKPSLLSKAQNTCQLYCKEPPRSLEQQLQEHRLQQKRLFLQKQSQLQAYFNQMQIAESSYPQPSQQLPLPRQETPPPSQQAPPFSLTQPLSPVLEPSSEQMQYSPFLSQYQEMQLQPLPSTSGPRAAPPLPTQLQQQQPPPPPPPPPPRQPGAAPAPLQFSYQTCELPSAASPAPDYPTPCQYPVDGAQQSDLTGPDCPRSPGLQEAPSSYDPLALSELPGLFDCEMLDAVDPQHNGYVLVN
Chain of OSR1 (O95747 whole entry): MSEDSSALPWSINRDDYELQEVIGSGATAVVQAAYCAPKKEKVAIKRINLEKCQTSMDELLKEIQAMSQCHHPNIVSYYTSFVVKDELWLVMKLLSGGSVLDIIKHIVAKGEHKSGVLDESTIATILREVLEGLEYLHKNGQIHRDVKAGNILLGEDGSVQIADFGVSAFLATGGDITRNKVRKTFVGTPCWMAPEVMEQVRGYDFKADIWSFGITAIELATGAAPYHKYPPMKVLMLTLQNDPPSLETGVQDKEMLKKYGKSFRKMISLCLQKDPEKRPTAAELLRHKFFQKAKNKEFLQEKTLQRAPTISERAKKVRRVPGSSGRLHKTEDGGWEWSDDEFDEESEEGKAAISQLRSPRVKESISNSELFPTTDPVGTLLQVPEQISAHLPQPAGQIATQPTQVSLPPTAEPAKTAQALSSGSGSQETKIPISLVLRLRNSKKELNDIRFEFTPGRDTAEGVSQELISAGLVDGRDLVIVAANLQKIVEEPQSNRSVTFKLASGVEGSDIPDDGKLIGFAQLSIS
Chain of PIM1 (P11309 whole entry): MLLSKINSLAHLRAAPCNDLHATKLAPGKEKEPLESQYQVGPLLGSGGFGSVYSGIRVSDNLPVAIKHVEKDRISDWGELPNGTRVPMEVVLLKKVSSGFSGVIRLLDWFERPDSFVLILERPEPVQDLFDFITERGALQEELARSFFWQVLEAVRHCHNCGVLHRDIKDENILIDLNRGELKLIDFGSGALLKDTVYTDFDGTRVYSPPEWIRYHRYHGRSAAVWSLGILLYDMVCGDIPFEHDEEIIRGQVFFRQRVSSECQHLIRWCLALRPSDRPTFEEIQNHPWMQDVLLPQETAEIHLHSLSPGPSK
Chain of MSK1 (O75582 whole entry): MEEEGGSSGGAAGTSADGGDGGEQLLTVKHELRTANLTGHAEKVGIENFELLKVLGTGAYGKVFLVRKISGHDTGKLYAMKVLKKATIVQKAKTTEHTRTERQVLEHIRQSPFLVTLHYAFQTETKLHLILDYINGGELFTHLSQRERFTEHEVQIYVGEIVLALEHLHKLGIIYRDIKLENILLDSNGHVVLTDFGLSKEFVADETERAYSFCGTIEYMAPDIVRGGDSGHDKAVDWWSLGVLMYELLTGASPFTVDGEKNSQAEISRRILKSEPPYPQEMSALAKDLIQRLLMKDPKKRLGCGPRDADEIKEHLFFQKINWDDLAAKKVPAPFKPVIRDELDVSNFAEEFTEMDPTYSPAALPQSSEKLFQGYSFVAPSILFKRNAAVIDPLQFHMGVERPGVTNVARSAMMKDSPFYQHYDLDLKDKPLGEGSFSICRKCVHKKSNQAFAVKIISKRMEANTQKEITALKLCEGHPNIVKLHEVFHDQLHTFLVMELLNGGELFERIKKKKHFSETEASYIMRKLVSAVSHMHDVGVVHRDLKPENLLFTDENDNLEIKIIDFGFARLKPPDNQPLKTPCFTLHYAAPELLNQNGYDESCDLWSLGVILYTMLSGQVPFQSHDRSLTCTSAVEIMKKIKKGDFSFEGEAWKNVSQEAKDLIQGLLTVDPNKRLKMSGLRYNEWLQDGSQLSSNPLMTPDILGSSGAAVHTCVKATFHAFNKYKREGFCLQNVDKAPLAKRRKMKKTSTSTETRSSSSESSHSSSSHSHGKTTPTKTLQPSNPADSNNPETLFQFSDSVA

What is called remaining activity is the share of the control activity or signal that is left under treatment. Consider `C=CS(=O)(=O)c1ccc(Nc2nc(OCC3CCCCC3)c3nc[nH]c3n2)cc1` [NU6300, 6-(cyclohexylmethoxy)-N-(4-(vinylsulfonyl)phenyl)-9H-purin-2-amine], for which the remaining activity at 1 µM is 69% at MSK1; 39% on MST4; 67% at OSR1; 48% on PAK5; 73% on PAK6; 84% at PIM1. The remaining activity at 1 µM on PKCα turned out to be 86%; on ROCK 2, 25%; on SIK2 it was 22%; on TAK1, 14%.
